Reference: patent US20050070508A1, “Napthalene carboxamides and their derivatives useful as new anti-angiogenic agents” (AGOURON PHARMACEUTICALS, INC., priority 2003, published 2005)

Assays:
[1] = target: T1, human vascular endothelial growth factor receptor 2 (VEGF-R2) (Homo sapiens, UniProt P35968, DEL940-989/E990V); test: VEGF-R2 coupled spectrophotometric assay (FLVK); type: biochemical; conditions: unphosphorylated VEGF-R2D50 (FLVK)
T1 construct: VEGF-R2D50 contains residues 806-939 and 990-1171; made in house; host or cells: baculovirus/insect cell system
T1 sequence (P35968 with tags, fused parts or gaps DEL940-989/E990V limits assumed): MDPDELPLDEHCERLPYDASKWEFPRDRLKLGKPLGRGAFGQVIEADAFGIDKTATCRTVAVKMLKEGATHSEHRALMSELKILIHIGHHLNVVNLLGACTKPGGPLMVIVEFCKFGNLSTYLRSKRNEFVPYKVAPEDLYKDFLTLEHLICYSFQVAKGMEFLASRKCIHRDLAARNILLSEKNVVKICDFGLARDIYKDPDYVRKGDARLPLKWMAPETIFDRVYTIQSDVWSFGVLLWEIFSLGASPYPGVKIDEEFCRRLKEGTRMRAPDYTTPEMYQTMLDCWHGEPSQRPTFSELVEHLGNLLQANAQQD
From the text: This construct determines the ability of a test compound to inhibit tyrosine kinase activity. A construct (VEGF-R2D50) of the cytosolic domain of human vascular endothelial growth factor receptor 2 (VEGF-R2) lacking the 50 central residues of the 68 residues of the kinase insert domain was expressed in a baculovirus/insect cell system. Of the 1356 residues of full-length VEGF-R2, VEGF-R2D50 contains residues 806-939 and 990-1171, and also one point mutation (E990V) within the kinase insert domain relative to wild-type VEGF-R2. Autophosphorylation of the purified construct was performed by incubation of the enzyme at a concentration of […] in the presence of 3 mM ATP and 40 mM MgCl2 in 100 mM HEPES, pH 7.5, containing 5% glycerol and 5 mM DTT, at 4° C. for 2 h. […] See Parast et al., Biochemistry, 37, 16788-16801 (1998).
The production of ADP from ATP that accompanies phosphoryl transfer was coupled to oxidation of NADH using phosphoenolpyruvate (PEP) and a system having pyruvate kinase (PK) and lactic dehydrogenase (LDH). The oxidation of NADH was monitored by following the decrease of absorbance at 340 nm (e340=6.22 cm^−1 mM^−1) using a Beckman DU 650 spectrophotometer. Assay conditions for phosphorylated VEGF-R2D50 (indicated as FLVK-P in the tables below) were the following: 1 mM PEP; […]; 50 units of LDH/mL; 20 units of PK/mL; 5 mM DTT; 5.1 mM poly(E4Y1); 1 mM ATP; and 25 mM MgCl2 in 200 mM HEPES, pH 7.5. Assay conditions for unphosphorylated VEGF-R2D50 (indicated as FLVK in the tables) were the following: 1 mM PEP; […]; 50 units of LDH/mL; 20 units of PK/mL; 5 mM DTT; 20 mM poly(E4Y1); 3 mM ATP; and 60 mM MgCl2 and 2 mM MnCl2 in 200 mM HEPES, pH 7.5. Assays were initiated with 5 to 40 nM of enzyme. Ki values were determined by measuring enzyme activity in the presence of varying concentrations of test compounds. The percent inhibition at 50 nm (% inhibition @ 50 nm) was determined by linear least-squares regression analysis of absorbance as a function of time. The binding inhibitions were fitted to equation as described by Morrison. The data were analyzed using Enzyme Kinetic and Kaleidagraph software.

[2] = tested on: human umbilical vein endothelial cells (HUVEC); test: HUVEC+VEGF Proliferation Assay; type: cell-based; conditions: VEGF-stimulated proliferation, final VEGF 6 ng/mL, 72 hours, MTT dye reduction
Method: This assay determines the ability of a test compound to inhibit the growth factor-stimulated proliferation of human umbilical vein endothelial cells (“HUVEC”). HUVEC cells (passage 3-4, Clonetics, Corp.) were thawed into EGM2 culture medium (Clonetics Corp) in T75 flasks. Fresh EGM2 medium was added to the flasks 24 hours later. Four or five days later, cells were exposed to another culture medium (F12K medium supplemented with 10% fetal bovine serum (FBS), […] endothelial cell growth supplement (ECGS), and 0.1 mg/mL heparin). Exponentially-growing HUVEC cells were used in experiments thereafter. Ten to twelve thousand HUVEC cells were plated in 96-well dishes in […] of rich, culture medium (described above). The cells were allowed to attach for 24 hours in this medium. The medium was then removed by aspiration and […] of starvation media (F12K+1% FBS) was added to each well. After 24 hours, […] of test agent dissolved in 1% DMSO in starvation medium or this vehicle alone was added into each treatment well; the final DMSO concentration was 0.1%. One hour later, […] of VEGF (30 ng/mL) in starvation media was added to all wells except those containing untreated controls; the final VEGF concentration was 6 ng/mL. Cellular proliferation was quantified 72 hours later by MTT dye reduction, at which time cells were exposed for 4 hours MTT (Promega Corp.). Dye reduction was stopped by addition of a stop solution (Promega Corp.) and absorbance at 595 nm was determined on a 96-well spectrophotometer plate reader.

Compound	Ki [1]	IC50 [2]
CNC(=O)c1cccc2cc(Oc3ccnc4cc(C(=O)N(C)CCN(C)C)sc34)ccc12 [Example 6, N-[2-(Dimethylamino)ethyl]-N-methyl-7-({5-[(methylamino)carbonyl]-2-naphthyl}oxy)thieno[3,2-b]pyridine-2-carboxamide]	< 1 nM	> 10 nM
CNC(=O)c1cccc2cc(Oc3ccnc4cc(C(=O)N(C)CCO)sc34)ccc12 [Example 8, N-(2-Hydroxyethyl)-N-methyl-7-({5-[(methylamino)carbonyl]-2-naphthyl}oxy)thieno[3,2-b]pyridine-2-carboxamide]	1 to 10 nM	> 10 nM
Cn1ccnc1-c1cc2nccc(Oc3ccc4c(C(=O)NCCN5CCOCC5)cccc4c3)c2s1 [Example 14, 6-{[2-(1-Methyl-1H-imidazol-2-yl)thieno[3,2-b]pyridin-7-yl]oxy}-N-(2-morpholin-4-ylethyl)-1-naphthamide]	< 1 nM	1 to 10 nM
O=C(NCCN1CCOCC1)c1cccc2cc(Oc3ccnc4ccsc34)ccc12 [Example 15, N-(2-Morpholin-4-ylethyl)-6-(thieno[3,2-b]pyridin-7-yloxy)-1-naphthamide]	1 to 10 nM	> 10 nM
O=C(Nc1ccc(N2CCOCC2)nc1)c1cccc2cc(Oc3ccnc4ccsc34)ccc12 [Example 35, 6-(Thieno[3,2-b]pyridin-7-yloxy)-naphthalene-1-carboxylic acid (6-morpholin-4-yl-pyridin-3-yl)-amide]	< 1 nM	1 to 10 nM
O=C(NCCCN1CCOCC1)c1cccc2cc(Oc3ccnc4ccsc34)ccc12 [Example 39, 6-(Thieno[3,2-b]pyridin-7-yloxy)-naphthalene-1-carboxylic acid (3-morpholin-4-yl-propyl)-amide]	1 to 10 nM	1 to 10 nM
O=C(NCCCN1CCOCC1)c1cccc2cc(Oc3ncnc4ccsc34)ccc12 [Example 42, 6-(Thieno [3,2-d]pyrimidin-4-yloxy)-naphthalene-1-carboxylic acid (3-morpholin-4-yl-propyl)-amide]	1 to 10 nM	> 10 nM
CNC(=O)c1cccc2cc(Oc3ccnc4cc(OC)ccc34)ccc12 [Example 43, 6-(7-Methoxy-quinolin-4-yloxy)-naphthalene-1-carboxylic Acid Methylamide]	1 to 10 nM	1 to 10 nM
CNC(=O)c1cccc2cc(Oc3ccnc4cc(OCCN5CCOCC5)ccc34)ccc12 [Example 45, 6-[7-(2-Morpholin-4-yl-ethoxy)-quinolin-4-yloxy]-naphthalene-1-carboxylic Acid Methylamide]	< 1 nM	< 1 nM
CCCCNC(=O)c1cccc2cc(Oc3ccnc4cc(OCCN5CCCC5)ccc34)ccc12 [Example 49, 6-[7-(2-Pyrrolidin-1-yl-ethoxy)-quinolin-4-yloxy]-naphthalene-1-carboxylic Acid Butylamide]	1 to 10 nM	1 to 10 nM
COc1ccc2c(Oc3ccc4c(C(=O)NC5CC5)cccc4c3)ccnc2c1 [Example 51, 6-(7-Methoxy-quinolin-4-yloxy)-naphthalene-1-carboxylic acid cyclopropylamide]	< 1 nM	1 to 10 nM

Now from value to compound, other results behind:

Ki [1]	Compound	IC50 [2]
1 to 10 nM	CNC(=O)c1cccc2cc(Oc3ccnc4cc(C(=O)N(C)CCCN(C)C)sc34)ccc12 [Example 7, N-[3-(Dimethylamino)propyl]-N-methyl-7-({5-[(methylamino)carbonyl]-2-naphthyl}oxy)thieno[3,2-b]pyridine-2-carboxamide]	> 10 nM
< 1 nM	O=C(NCCN1CCOCC1)c1cccc2cc(Oc3ccnc4cc(C(=O)N5CC[C@@H](O)C5)sc34)ccc12 [Example 13, 6-[(2{[(3R)-3-Hydroxypyrrolidin-1-yl]carbonyl}thieno[3,2-b]pyridin-7-yl)oxy]-N-(2-morpholin-4-ylethyl)-1-naphthamide]	1 to 10 nM
< 1 nM	Cn1ccnc1-c1cc2nccc(Oc3ccc4c(C(=O)NCCCN5CCOCC5)cccc4c3)c2s1 [Example 30, 6-[2-(1-Methyl-1H-imidazol-2-yl)-thieno[3,2-b]pyridin-7-yloxy]-naphthalene-1-carboxylic acid (3-morpholin-4-yl-propyl)-amide]	< 1 nM
< 1 nM	O=C(NCCN1CCOCC1)c1cccc2cc(Oc3ccnc4cc(C(=O)N5CCC5)sc34)ccc12 [Example 31, 6-[2-(Azetidine-1-carbonyl)-thieno[3,2-b]pyridin-7-yloxy]-naphthalene-1-carboxylic acid (2-morpholin-4-yl-ethyl)-amide]	1 to 10 nM
< 1 nM	O=C(NCCCN1CCOCC1)c1cccc2cc(Oc3ccnc4cc(C(=O)N5CCC5)sc34)ccc12 [Example 32, 6-[2-(Azetidine-1-carbonyl)-thieno[3,2-b]pyridin-7-yloxy]-naphthalene-1-carboxylic acid (3-morpholin-4-yl-propyl)-amide]	1 to 10 nM
< 1 nM	O=C(Nc1ccc(N2CCC(O)CC2)nc1)c1cccc2cc(Oc3ccnc4ccsc34)ccc12 [Example 34, 6-(Thieno[3,2-b]pyridin-7-yloxy)-naphthalene-1-carboxylic acid (4-hydroxy-3,4,5,6-tetrahydro-2H-[1,2′]bipyridinyl-5′-yl)-amide]	1 to 10 nM
1 to 10 nM	CNC(=O)c1cccc2cc(Oc3ccnc4cc(OCCN5CCCCC5)ccc34)ccc12 [Example 46, 6-[7-(2-Piperidin-1-yl-ethoxy)-quinolin-4-yloxy]-naphthalene-1-carboxylic Acid Methylamide]	< 1 nM
1 to 10 nM	COc1ccc2c(Oc3ccc4c(C(=O)NC(C)C)cccc4c3)ccnc2c1 [Example 50, 6-(7-Methoxy-quinolin-4-yloxy)-naphthalene-1-carboxylic Acid Isopropylamide]	> 10 nM
